By IC50 is commonly meant the concentration that inhibits the measured activity by half. A low value points to greater potency in that assay.

In doi:10.1101/2025.10.23.682519v1 (biorxiv, 2025) one finds IC50 data, which are given here for one compound.

What all share (experiment): cell-based
Assay [1] concerns the target human ZIP14 (hZIP14) isoform 1, HA-tagged (Homo sapiens, UniProt Q15043).
Assay [2] addresses human ZIP14 (hZIP14) isoform 1, HA-tagged (Homo sapiens, UniProt Q15043, D443L).
A further assay addresses human ZIP8 (hZIP8) (Homo sapiens, UniProt Q9C0K1).

Chain of human ZIP14 (hZIP14) isoform 1, HA-tagged (Homo sapiens, UniProt Q15043, D443L) (Q15043 31-492 D443L): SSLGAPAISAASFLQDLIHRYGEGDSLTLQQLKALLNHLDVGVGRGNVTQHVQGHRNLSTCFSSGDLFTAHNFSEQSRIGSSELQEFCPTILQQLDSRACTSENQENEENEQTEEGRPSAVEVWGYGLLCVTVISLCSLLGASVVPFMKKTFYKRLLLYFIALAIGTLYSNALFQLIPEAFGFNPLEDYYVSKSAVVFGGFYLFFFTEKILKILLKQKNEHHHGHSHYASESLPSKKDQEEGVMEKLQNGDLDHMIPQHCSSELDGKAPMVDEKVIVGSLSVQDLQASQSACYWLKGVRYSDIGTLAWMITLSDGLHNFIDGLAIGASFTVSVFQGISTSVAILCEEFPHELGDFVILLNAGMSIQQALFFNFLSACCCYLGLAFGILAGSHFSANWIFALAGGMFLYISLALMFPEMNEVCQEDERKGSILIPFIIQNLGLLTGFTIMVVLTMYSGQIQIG
Chain of human ZIP14 (hZIP14) isoform 1, HA-tagged (Homo sapiens, UniProt Q15043) (Q15043 31-492): as the sequence (Q15043 31-492 D443L) above, with L413D counted along it
Chain of human ZIP8 (hZIP8) (Q9C0K1 23-460): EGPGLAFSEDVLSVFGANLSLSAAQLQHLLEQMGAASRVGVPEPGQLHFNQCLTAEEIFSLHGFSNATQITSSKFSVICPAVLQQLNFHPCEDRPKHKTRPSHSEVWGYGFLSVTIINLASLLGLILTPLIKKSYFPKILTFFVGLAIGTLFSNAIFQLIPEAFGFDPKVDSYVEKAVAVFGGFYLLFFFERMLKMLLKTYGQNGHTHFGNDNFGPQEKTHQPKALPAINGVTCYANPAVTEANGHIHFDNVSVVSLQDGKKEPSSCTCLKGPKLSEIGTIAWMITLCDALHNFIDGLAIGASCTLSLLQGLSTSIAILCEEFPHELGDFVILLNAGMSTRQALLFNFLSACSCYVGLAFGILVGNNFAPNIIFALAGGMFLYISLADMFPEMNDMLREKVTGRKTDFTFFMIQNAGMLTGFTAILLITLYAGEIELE

Turning to `O=C1NCN(c2ccccc2)C12CCN(CCc1ccccc1)CC2` [PPTD, 1-phenyl-8-(2-phenylethyl)-1,3,8-triazaspiro[4.5]decan-4-one], the IC50 was 8.9 µM in assay [1], 19 µM in assay [2] and above 37 µM on human ZIP8 (hZIP8).
